According to patent US7829572B2 (Pfizer Inc, priority 2006, dated 2010):
pIC50: −log10 of the molar value.

These compounds were tested against T1, calcium receptor (CasR) (Homo sapiens, UniProt P41180) (assay: FLIPR Assay for Evaluating the Potency and Selectivity of Test Compounds). Details: HEK 293 cells expressing CasR; 30 minutes pre-incubation; stimulation by 1.7 mM Ca2+; read 42 seconds after stimulation.
T1 construct: expressed in transfected cells; host or cells: HEK 293
T1 sequence (P41180 20-1078): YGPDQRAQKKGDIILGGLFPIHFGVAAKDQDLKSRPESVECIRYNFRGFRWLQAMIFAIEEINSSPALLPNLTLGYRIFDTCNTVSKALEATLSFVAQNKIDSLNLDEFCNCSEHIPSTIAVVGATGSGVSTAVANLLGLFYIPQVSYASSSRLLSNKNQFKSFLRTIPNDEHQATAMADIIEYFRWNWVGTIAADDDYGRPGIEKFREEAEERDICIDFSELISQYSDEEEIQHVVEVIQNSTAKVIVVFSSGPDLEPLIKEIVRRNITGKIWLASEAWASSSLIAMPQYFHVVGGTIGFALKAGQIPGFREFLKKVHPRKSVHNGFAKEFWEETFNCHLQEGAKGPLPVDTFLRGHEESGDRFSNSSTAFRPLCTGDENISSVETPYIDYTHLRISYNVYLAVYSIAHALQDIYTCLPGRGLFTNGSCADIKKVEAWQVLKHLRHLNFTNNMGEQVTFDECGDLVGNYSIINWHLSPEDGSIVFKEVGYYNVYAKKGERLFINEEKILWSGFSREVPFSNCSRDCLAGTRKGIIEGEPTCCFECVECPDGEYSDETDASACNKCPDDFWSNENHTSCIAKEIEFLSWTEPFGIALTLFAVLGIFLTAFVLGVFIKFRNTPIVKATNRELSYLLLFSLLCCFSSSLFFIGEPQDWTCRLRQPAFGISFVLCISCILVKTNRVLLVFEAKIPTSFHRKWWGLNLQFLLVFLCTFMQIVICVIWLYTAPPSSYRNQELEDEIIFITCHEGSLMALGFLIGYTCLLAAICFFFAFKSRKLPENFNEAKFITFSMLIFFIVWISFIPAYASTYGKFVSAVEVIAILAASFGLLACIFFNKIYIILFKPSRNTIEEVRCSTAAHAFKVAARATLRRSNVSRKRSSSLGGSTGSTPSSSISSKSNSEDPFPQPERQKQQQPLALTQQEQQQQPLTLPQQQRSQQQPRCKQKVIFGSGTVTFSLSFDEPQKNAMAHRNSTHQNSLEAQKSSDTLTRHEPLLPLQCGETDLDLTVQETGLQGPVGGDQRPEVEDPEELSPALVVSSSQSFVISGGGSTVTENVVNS
Format: cell-based
Source text: FLIPR Assay for Evaluating the Potency and Selectivity of Test Compounds
Human kidney cell (HEK 293) expressing the calcium receptor (CasR) are used to detect antagonists of the receptor using Fluorometric imaging plate reader (FLIPR, Molecular Devices, Sunnyvale Calif.). Receptor activation by extracellular calcium results in the release of calcium from intracellular stores into the cytosol. A fluorescent indicator (Fluo-4) is internalized by the cells from growth media and interacts with calcium released into the cytosol to provide a means of quantifying intracellular Ca^2+ levels and receptor agonism/antagonism. Fluorescence intensity is detected by the FLIPR CCD camera and traced as a function of time. Potential antagonists are identified by their ability to decrease this fluorescent response.
Prior to the addition of test compound cells are washed with a 10 mM HEPES buffer solution. The test compound, for example the compound of Example 1, is added at various doses (from 1 µM to 3 nM) and pre-incubated with cells for 30 minutes followed by stimulation of the CasR by the addition of 1.7 mM Ca^2+. IC50 values are based on the ability of the cells to inhibit the Ca^2+ induced increase in intracellular Ca^2+. Fluorescence signal is read 42 seconds after the stimulation of the CasR by the addition of 1.7 mM Ca^2+.
The following table provides FLIPR IC50 data for the specified Examples. The IC50s are reported as micromolar concentration with n being the number of times the particular compound was assayed.
In the case of `CC(Cc1ccccc1F)n1c(-c2ncccc2O)nc2ccnc(C(F)(F)F)c2c1=O` (racemic) [Example 6, (R, S)-2-(3-Hydroxy-pyridin-2-yl)-3-(1-methyl-2-(2-fluorophenyl)ethyl)-5-trifluoromethyl-3H-pyrido[4,3-d]pyrimidin-4-one], the pIC50 was 7.30.
Work on `O=c1c2c(C(F)(F)F)nccc2nc(-c2ncccc2O)n1CCC1CCCCO1` (racemic) [Example 49, (R, S)-2-(3-hydroxypyridin-2-yl)-3-(2-(tetrahydro-2H-pyran-2-yl)ethyl)-5-(trifluoromethyl)pyrido[4,3-d]pyrimidin-4(3H)-one] yielded a pIC50 of 6.32.
With `CC(Cc1ccccc1F)n1c(-c2ncccc2O)nc2ccnc(C(F)(F)F)c2c1=O` (single isomer, unassigned) [Example 6a, 2-(3-Hydroxy-pyridin-2-yl)-3-(1-methyl-2-(2-fluorophenyl)ethyl)-5-trifluoromethyl-3H-pyrido[4,3-d]pyrimidin-4-one] the pIC50 was 7.30.
`CC(Cc1ccccc1F)n1c(-c2ncccc2O)nc2ccnc(C(F)(F)F)c2c1=O` (single isomer, unassigned) [Example 6b, 2-(3-Hydroxy-pyridin-2-yl)-3-(1-methyl-2-(2-fluorophenyl)ethyl)-5-trifluoromethyl-3H-pyrido[4,3-d]pyrimidin-4-one] gave a pIC50 of 5.85.
In the case of `O=c1c2c(C(F)(F)F)nccc2nc(-c2ccccc2O)n1CCc1ccccc1` [Example 1, 2-(2-Hydroxy-phenyl)-3-phenethyl-5-trifluoromethyl-3H-pyrido[4,3-d]pyri-midin-4-one], the pIC50 was 7.30.
`O=c1c2c(C(F)(F)F)nccc2nc(-c2cccc(F)c2O)n1CCc1ccccc1` [Example 2, 2-(3-Fluoro-2-hydroxy-phenyl)-3-phenethyl-5-trifluoromethyl-3H-pyrido[4,3-d]pyrimidin-4-one] gave a pIC50 of 6.21.
Compound `O=c1c2c(C(F)(F)F)nccc2nc(-c2ncccc2O)n1CCc1ccccc1` [Example 3, 2-(3-Hydroxy-pyridin-2-yl)-3-phenethyl-5-trifluoromethyl-3H-pyrido[4,3-d]pyrimidin-4-one] has a pIC50 of 6.41.
Compound `C[C@H](Cc1ccccc1)n1c(-c2ccccc2O)nc2ccnc(C(F)(F)F)c2c1=O` [Example 4a, (R)-2-(2-Hydroxy-phenyl)-3-(1-methyl-2-phenyl-ethyl)-5-trifluoromethyl-3H-pyrido[4,3-d]pyrimidin-4-one] has a pIC50 of 7.22.
`C[C@@H](Cc1ccccc1)n1c(-c2ccccc2O)nc2ccnc(C(F)(F)F)c2c1=O` [Example 4b, (S)-2-(2-Hydroxy-phenyl)-3-(1-methyl-2-phenyl-ethyl)-5-trifluoromethyl-3H-pyrido[4,3-d]pyrimidin-4-one] gave a pIC50 of 6.80.
`C[C@H](Cc1ccccc1)n1c(-c2ncccc2O)nc2ccnc(C(F)(F)F)c2c1=O` [Example 5, (R)-2-(3-Hydroxy-pyridin-2-yl)-3-(1-methyl-2-phenyl-ethyl)-5-trifluoromethyl-3H-pyrido[4,3-d]pyrimidin-4-one] gave a pIC50 of 7.70.
Compound `O=c1c2c(C(F)(F)F)nccc2nc(-c2ccccc2O)n1CCc1ccccc1F` [Example 7] has a pIC50 of 6.89.
With `O=c1c2c(C(F)(F)F)nccc2nc(-c2ccccc2O)n1CCc1cccc(F)c1` [Example 8] the pIC50 was 7.05.
`O=c1c2c(C(F)(F)F)nccc2nc(-c2cccc(F)c2O)n1CCc1ccccc1F` [Example 9, 2-(3-Fluoro-2-hydroxy-phenyl)-3-[2-(2-fluoro-phenyl)-ethyl]-5-trifluoromethyl-3H-pyrido[4,3-d]pyrimidin-4-one] gave a pIC50 of 6.54.
Work on `Cc1cc2nc(-c3ccccc3O)n(CCc3ccccc3)c(=O)c2c(C(F)(F)F)n1` [Example 10, 2-(2-Hydroxy-phenyl)-7-methyl-3-(phenyl-ethyl)-5-trifluoromethyl-3H-pyrido[4,3-d]pyrimidin-4-one] yielded a pIC50 of 6.92.
`O=c1c2c(C(F)(F)F)nccc2nc(-c2cccc(F)c2O)n1CCc1cccc(F)c1` [Example 11, 2-(3-Fluoro-2-hydroxy-phenyl)-3-[2-(3-fluoro-phenyl)-ethyl]-5-trifluoromethyl-3H-pyrido[4,3-d]pyrimidin-4-one] gave a pIC50 of 6.34.
For `O=c1c2c(C(F)(F)F)nccc2nc(-c2ncccc2O)n1CCc1ccccc1F` [Example 12, 3-[2-(2-Fluoro-phenyl)-ethyl-]2-(3-hydroxy-pyridin-2-yl)-5-trifluoromethyl-3H-pyrido[4,3-d]pyrimidin-4-one], the pIC50 was 6.60.
With `O=c1c2c(C(F)(F)F)nccc2nc(-c2ncccc2O)n1CCc1ccc(F)c(F)c1` [Example 13, 3-[2-(3,4-Difluoro-phenyl)-ethyl]-2-(3-hydroxy-pyridin-2-yl)-5-trifluoromethyl-3H-pyrido[4,3-d]pyrimidin-4-one] the pIC50 was 7.15.
`O=c1c2c(C(F)(F)F)nccc2nc(-c2ncccc2O)n1CCc1ccc(F)cc1F` [Example 14, 3-[2-(2,4-Difluoro-phenyl)-ethyl]-2-(3-hydroxy-pyridin-2-yl)-5-trifluoromethyl-3H-pyrido[4,3-d]pyrimidin-4-one] showed a pIC50 of 6.77.
`O=c1c2c(C(F)(F)F)nccc2nc(-c2ccccc2O)n1CCc1ccc(F)c(F)c1` [Example 15] was tested, and the pIC50 was 6.80.
`CNc1nccc2nc(-c3ccccc3O)n(CCc3ccccc3)c(=O)c12` [Example 16, 2-(2-Hydroxy-phenyl)-5-methylamino-3-phenethyl-3H-pyrido[4,3-d]pyrimidin-4-one] gave a pIC50 of 4.97.
Compound `CC(C)Nc1nccc2nc(-c3ccccc3O)n(CCc3ccccc3)c(=O)c12` [Example 17, 2-(2-Hydroxy-phenyl)-5-isopropylamino-3-phenethyl-3H-pyrido[4,3-d]pyrimidin-4-one] has a pIC50 of 4.96.
`O=c1c2c(N3CCCC3)nccc2nc(-c2ccccc2O)n1CCc1ccccc1` [Example 18, 2-(2-Hydroxy-phenyl)-3-phenethyl-5-pyrrolidin-1-yl-3H-pyrido[4,3-d]pyrimidin-4-one] showed a pIC50 of 4.91.
For `CN1CCN(c2nccc3nc(-c4ccccc4O)n(CCc4ccccc4)c(=O)c23)CC1` [Example 19, 2-(2-Hydroxy-phenyl)-5-(4-methyl-piperazin-1-yl)-3-phenethyl-3H-pyrido[4,3-d]pyrimidin-4-one], the pIC50 was under 4.00.
`O=c1c2c(N3CCNCC3)nccc2nc(-c2ccccc2O)n1CCc1ccccc1` [Example 20, 2-(2-Hydroxy-phenyl)-3-phenethyl-5-piperazin-1-yl-3H-pyrido[4,3-d]pyrimidin-4-one] was tested, and the pIC50 was under 4.00.
For `CN(C)c1nccc2nc(-c3ccccc3O)n(CCc3ccccc3)c(=O)c12` [Example 21, 5-Dimethylamino-2-(2-hydroxy-phenyl)-3-phenethyl-3H-pyrido[4,3-d]pyrimidin-4-one], the pIC50 was 4.86.
Work on `O=c1c2c(N3CCOCC3)nccc2nc(-c2ccccc2O)n1CCc1ccccc1` [Example 22, 2-(2-Hydroxy-phenyl)-5-morpholin-4-yl-3-phenethyl-3H-pyrido[4,3-d]pyrimidin-4-one] yielded a pIC50 of under 4.00.
`O=c1c2c(N3CCC3)nccc2nc(-c2ccccc2O)n1CCc1ccccc1` [Example 23, 5-Azetidin-1-yl-2-(2-hydroxy-phenyl)-3-phenethyl-3H-pyrido[4,3-]d-pyrimidin-4-one] showed a pIC50 of 4.86.
With `O=c1c2c(-c3ccccc3)nccc2nc(-c2ccccc2O)n1CCc1ccccc1` [Example 24, 2-(2-Hydroxy-phenyl)-3-phenethyl-5-phenyl-3H-pyrido[4,3-d]pyrimidin-4-one] the pIC50 was 5.59.
`O=c1c2c(Cc3ccccc3)nccc2nc(-c2ccccc2O)n1CCc1ccccc1` [Example 25, 5-Benzyl-2-(2-hydroxy-phenyl)-3-phenethyl-3H-pyrido[4,3-d]pyrimidin-4-one] showed a pIC50 of 5.52.
`Cc1nccc2nc(-c3ccccc3O)n(CCc3ccccc3)c(=O)c12` [Example 26, 2-(2-Hydroxy-phenyl)-5-methyl-3-phenethyl-3H-pyrido[4,3-d]pyrimidi-4-one] showed a pIC50 of 5.52.
